PubChem BioAssay AID2252 (Southern Research Specialized Biocontainment Screening …, 2010)

Test system: THP-1 viability, CellTiter-Glo luminescence, 72 h
Experiment: PubChem AID 2252

| Structure (SMILES) | EC50 |
| --- | --- |
| O=C(CCl)NC1CCCc2ccccc21 (configuration not stated) | 25.7 µM |
| CSc1nc2cc(Oc3cccc(Cl)c3Cl)c(Cl)cc2[nH]1 | 43.9 µM |
| O=C(Nc1ccc(Cc2ccncc2)cc1)c1ccc([N+](=O)[O-])o1 | 4.02 µM |
| NC1=NC[C@H](Cc2ccccc2)N1CCCCC1CCCCC1 | 3.5 µM |
| N#C/C(N=Nc1ccccc1O)=N\Nc1ccccc1O | 4.42 µM |
| O=[N+]([O-])c1ccc(O)c2ncccc12 | 5.99 µM |
| C=C(C)COc1ccc2c(C)c(CCC(=O)NC3CC3)c(=O)oc2c1 | < 0.1 µM |
| CCN1/C(=C/c2cc[n+](C)cc2)C=Cc2cc(C)ccc21 | 6.78 µM |
| COc1ccc(CNCCc2ccc(Cl)cc2)cc1OCc1ccccc1 | 24.5 µM |
| Cc1ccccc1-n1ncc2c([N+](=O)[O-])cc([N+](=O)[O-])cc21 | 26.6 µM |
| NC1=NC[C@@H](Cc2ccc(O)cc2)N1CCc1cc(C(F)(F)F)cc(C(F)(F)F)c1 | 32.3 µM |
| COc1ccc(NS(=O)(=O)c2cc(NC(=O)c3ccc(C)s3)ccc2N2CCOCC2)cc1 | 21.6 µM |
| O=C(N/N=C/c1ccc([N+](=O)[O-])o1)C1CCCC1 | < 0.1 µM |
| CN1C(=O)/C(=C/c2cccc(Cl)c2)Sc2ccc(C(=O)N3CCCC3)cc21 | 21.1 µM |
| O=C(N/N=C/c1cc([N+](=O)[O-])ccc1O)C(O)(c1ccccc1)c1ccccc1 | 11.8 µM |
| O=C(CSc1ccccn1)N/N=C/c1cc([N+](=O)[O-])ccc1O | 21.5 µM |
| Oc1c(CN2CCOCC2)cc(COCc2ccccc2)c2cccnc12 | 2.24 µM |
| Cc1cc(C)n(-c2nc(NCCN(C)C)c3c4c(sc3n2)CCCC4)n1 | 4.39 µM |
| Clc1ccc2c(c1)c1cc(Cl)ccc1n2CN1CCOCC1 | 27.2 µM |

| Structure (SMILES) | EC50 |
| --- | --- |
| CCOc1ccc(Nc2nc(NCC3CCCO3)c3ccccc3n2)cc1 (configuration not stated) | 2.28 µM |
| CCC(C)(C)c1ccc(OCCCC[n+]2ccccc2)c(C(C)(C)CC)c1 | 0.97 µM |
| CCN1CCN(Cc2ccc(NC(=O)c3ccc(C)c(NC(=O)c4c[nH]c5cc(C(F)(F)F)ccc5c4=O)c3)cc2C(F)(F)F)CC1 | 2.04 µM |
| Fc1ccc(CCNCc2ccc(Cl)c(Cl)c2)cc1 | 35.2 µM |
| CC1(C)N=C(N)NC(Nc2ccc(Br)cc2)=N1 | 7.06 µM |
| Oc1[nH]c2ccc(Br)cc2c1N=NC(=S)N1CCOCC1 | 1.82 µM |
| COc1cc(CNCCc2ccccc2)cc(Cl)c1OCc1ccccc1 | 16.6 µM |
| CNC[C@H](CC1CCCCC1)NC[C@H](Cc1ccccc1)NCCC12CC3CC(CC(C3)C1)C2 | 3.49 µM |
| CCCCOc1ccc(C(=O)OC2CC(C)N(C)CC2C)cc1 (configuration not stated) | 30.7 µM |
| COc1cc(CNCCc2c[nH]c3ccccc23)ccc1OCc1ccc(F)cc1 | 6.34 µM |
| COc1ccc2nc(N(CCN(C)C)C(=O)/C=C/c3cccs3)sc2c1 | 16.1 µM |
| CCc1ccc(CNCc2ccc(OCC(O)CN(C)Cc3ccccc3)cc2)nc1 (configuration not stated) | 23 µM |
| NC1=NC[C@H](Cc2ccc(O)cc2)N1CCCCC1CCCCC1 | 1.73 µM |
| COc1cc([N+](=O)[O-])cc(/C=N/NC(=O)CSc2ccccn2)c1O | 34.7 µM |
| O=C(NCCCN1CCN(c2ccc(F)cc2)CC1)Nc1ccc([N+](=O)[O-])cc1 | 45.1 µM |
| CN(C)c1ccc(O)c2c1CC1CC3[C@@H](N(C)C)C(=O)C(C(N)=O)=C(O)[C@]3(O)C(=O)C1=C2O (some centres not stated) | 30.3 µM |
| COc1ccc(CNCCc2cccc(F)c2)c2ccccc12 | 12.9 µM |
| OC(CN1CCCCC1)Cn1c2ccccc2c2cc(Br)ccc21 (configuration not stated) | 17.5 µM |
| Cc1ccc(C(=O)N/C(=C\c2ccc(-c3ccc(Br)cc3)o2)C(=O)NCCCN(C)C)cc1 | 4.18 µM |

| Structure (SMILES) | EC50 |
| --- | --- |
| CN(C)CCCNC(=S)NCC(c1ccc(Cl)cc1Cl)c1c[nH]c2ccccc12 (configuration not stated) | 3.66 µM |
| Cc1ccc(-c2ccccc2NC(=O)CS(=O)CC(=O)Nc2ccc(C)c(Cl)c2)o1 (configuration not stated) | 32.2 µM |
| COc1ccc(C(=O)Nc2cc3c(cc2OC)CCCC3)cc1Br | < 0.1 µM |
| CS(=O)(=O)c1ccc2nc(NC(=O)c3ccc(Cl)nc3)sc2c1 | 46.2 µM |
| Cc1nn(-c2nc3ccccc3[nH]2)c(N)c1-c1ccccc1 | 28.7 µM |
| c1ccc2c(c1)CSc1sccc1C2=C1CCNCC1 | 17.7 µM |
| Cc1cccn2c(=O)c(C=O)c(Cl)nc12 | 26.8 µM |
| Cc1cc(C)c(OCCCCNCc2ccccc2)c(Cl)c1 | 12.2 µM |
| O=C(CCN1CCC(c2ccccc2)C1)c1ccc2c(c1)OCCO2 (configuration not stated) | 21.6 µM |
| c1ccc(CN2CCN(c3ncnc4c3[nH]c3ccccc34)CC2)cc1 | 20 µM |
| CCOc1ccc(-c2cc(C)[n+](CCN(CC)CC)c(-c3ccc(OCC)cc3)c2)cc1 | 4.37 µM |
| Cc1c(C(=O)Nc2ccncc2)sc2nc(-c3ccc(F)cc3)cn12 | 19.6 µM |
| c1ccc2c(c1)C(=NC1CCCCC1)NC2=NC1CCCCC1 | 4.25 µM |
| Cc1[nH]c2ccccc2c1/C=N/Nc1nc2ccccc2[nH]1 | 1.52 µM |
| Cc1ccc(Cn2c(=N)n(CC(O)COc3ccccc3)c3ccccc32)cc1 (configuration not stated) | 6.08 µM |
| O=C1C=C(c2ccc(Cl)cc2)C(=O)N1Nc1ccccc1 | 5.96 µM |
| CCOC(=O)c1nc(C)n(-c2cc(Cl)ccc2Cl)n1 | 14.9 µM |
| CCc1ccc(Nc2n[n+](-c3ccccc3)c(-c3c(Cl)cccc3Cl)s2)cc1 | 3.75 µM |
| CN1CCN(c2ccc(NC(=O)CSc3ccccc3)cc2F)CC1 | < 0.1 µM |
